Values quoted from earlier work, collected in US20160206617A1, “COMPOSITIONS AND THERAPEUTIC METHODS FOR ACCELERATED PLAQUE REGRESSION” (RESVERLOGIX CORP., priority 2013, published 2016).
Read-outs that look alike come from different tables or passages of the source.

Key:
ApoA-I = conditions: in vitro and in vivo
atherosclerosis [1] = conditions: SATURN; 2 years; rosuvastatin 40 mg daily, atorvastatin 80 mg daily
atherosclerosis [2] = tested on: atherosclerosis
atherosclerosis [3] = conditions: REVERSAL; 2 years; pravastatin 40 mg daily, atorvastatin 80 mg daily

Compound | effect on plasma levels of ApoA-I and HDL (ApoA-I) | median change in PAV (atherosclerosis [1]) [%] | median change PAV (atherosclerosis [2]; ASTEROID, 2 years, rosuvastatin 40 mg daily, all patients) [%] | median decrease in PAV from baseline (atherosclerosis [2]; ASTEROID, subgroup with average HDL-C during treatment less than 40 mg/dL) [%] | PAV decrease (median change) (atherosclerosis [2]; FIG. 8, rosuvastatin 40 mg without RVX-208, after 104 weeks, below median HDL) [%] | median change in PAV (atherosclerosis [3])
COc1cc(OC)c2c(=O)[nH]c(-c3cc(C)c(OCCO)c(C)c3)nc2c1 [RVX-208, 2-(4-(2-hydroxyethoxy)-3,5-dimethylphenyl)-5,7-dimethoxyquinazolin-4(3H)-one] | increase plasma levels of ApoA-I and HDL | – | – | – | – | –
CC(C)c1nc(N(C)S(C)(=O)=O)nc(-c2ccc(F)cc2)c1/C=C/[C@@H](O)C[C@@H](O)CC(=O)O [rosuvastatin, (3R,5S,6E)-7-[4-(4-fluorophenyl)-2-(N-methylmethanesulfonamido)-6-(propan-2-yl)pyrimidin-5-yl]-3,5-dihydroxyhept-6-enoic acid] | – | −1.22 | −0.79 | −1.3 | 1.30 | –
CC(C)c1c(C(=O)Nc2ccccc2)c(-c2ccccc2)c(-c2ccc(F)cc2)n1CC[C@@H](O)C[C@@H](O)CC(=O)O [atorvastatin] | – | −0.99 | – | – | – | +0.2%
